US12691111B2, “SETD2 inhibitors and related methods and uses, including combination therapies” (EPIZYME, INC., priority 2020, dated 2026)

What was measured:
KARPAS422 = test: Pre-treatment model combination study (4 days pre-treatment, 3 days co-treatment), CellTiter-Glo, Loewe Volume; type: cell-based; details: KARPAS422 diffuse large B-cell lymphoma cells, 4 days Cpd. No. 15 pre-treatment then 3 days co-treatment
Protocol: (§1) Diffuse large B-cell lymphoma cells were seeded into flasks and pre-treated with several concentrations of Cpd. No. 15 or DMSO. Cells were then split adjusted to initial density, replated and co-treated Cpd. No. 15 and a second agent of interest using the HP D300 digital dispenser (Tecan Group, Mannedorf, Switzerland) in tissue culture treated solid white 384-well plates for additional 3 days. […] After 3 days cotreatment, cell viability was measured via ATP content using CellTiter-Glo® (Promega, Madison, WI) and luminescence was detected using a SpectraMax M5 microplate reader (Molecular Devices, Sunnyvale, CA).
(§2) Diffuse large B-cell lymphoma (DLBCL) cell line cultures in log-linear growth rate were treated with combinations of Cpd. No. 15 and combination partners according to a pre-treatment model. Cells were seeded first into 8 flasks and pre-treated with 7 different concentrations of Cpd. […] Cells were harvested from each flask and re-seeded onto the corresponding 384-well plate with the same concentration of Cpd. No. 15. and 9 concentrations of its combination partner in triplicate wells. The final concentration of DMSO (vehicle) in the assay was 0.1% v/v. Fifty microliters of cell line(s) suspension were directly dispensed to the assay-ready plates with an automated multichannel dispenser on to 384-well assay-ready plates. Assay plates were incubated for three days in a humidified atmosphere of 5% CO2 at 37° C. Quantification of the effect of single agents or combinations on cell viability was performed through measurement of cellular adenosine triphosphate (ATP) using CellTiter-Glo® (Promega, Madison, WI). Luminescence was detected using a SpectraMax M5 microplate reader (Molecular Devices, Sunnyvale, CA). Concentration response plots were generated in GraphPad Prism version 8.0 for Windows, GraphPad Software, (La Jolla, CA) and curves fitted to a four-parameter logistic model with variable slope. Percent of inhibition was calculated at each treatment concentration.

SUDHL-6 = test: as above; type: cell-based; details: SUDHL-6 diffuse large B-cell lymphoma cells, 4 days Cpd. No. 15 pre-treatment then 3 days co-treatment
Protocol: as §1, §2

SUDHL-2 = test: as above; type: cell-based; details: SUDHL-2 diffuse large B-cell lymphoma cells, 4 days Cpd. No. 15 pre-treatment then 3 days co-treatment
Protocol: as §1, §2

WSUDLCL2 = test: as above; type: cell-based; details: WSUDLCL2 diffuse large B-cell lymphoma cells, 4 days Cpd. No. 15 pre-treatment then 3 days co-treatment
Protocol: as §1, §2

KMS-11 = test: 7-day co-treatment combination study, CellTiter-Glo, Loewe Volume; details: KMS-11 multiple myeloma cells, 7-day co-treatment with Cpd. No. 15
Z138 = test: as above; type: cell-based; details: Z138 mantle cell lymphoma cells, 7-day co-treatment with Cpd. No. 15
Protocol: (§3) Multiple myeloma (MM) and mantle cell lymphoma (MCL) Cell line cultures in log-linear growth rate were treated with combinations of Cpd. No. 15 and combination partners according to a co-treatment model. […] No. 15 and the combination partner. […] Each combination was tested in quadruplicate wells. The final concentration of DMSO (vehicle) in the assay was 0.1% v/v. Fifty microliters of cell line suspension were directly dispensed to the assay-ready plates with an automated multichannel dispenser on to 384-well assay-ready plates. Assay plates were incubated for seven days in a humidified atmosphere of 5% CO2 at 37° C. Quantification of the effect of single agents or combinations on cell viability was performed through measurement of cellular adenosine triphosphate (ATP) using a CellTiter-Glo® (Promega, MadisonWIs.) Luminescent Cell Viability Assay. Luminescence was detected using a SpectraMax M5 microplate reader (Molecular Devices, Sunnyvale, CA). Concentration response plots were generated in GraphPad Prism version 7.0 for Windows, GraphPad Software, (La Jolla, CA) and curves fitted to a four-parameter logistic model with variable slope. Percent of inhibition was calculated at each treatment concentration.
(§4) The results of these combinations are summarized in Tables A and B (multiple myeloma cell lines), and Tables C and D (mantle cell lymphoma cell lines).

GRANTA519 = test: as above; type: cell-based; details: GRANTA519 mantle cell lymphoma cells, 7-day co-treatment with Cpd. No. 15
Protocol: as §3, §4

RPMI-8226 = test: as above; type: cell-based; details: RPMI-8226 multiple myeloma cells, 7-day co-treatment with Cpd. No. 15
Protocol: as §3, §4

KMS-28-BM = test: as above; type: cell-based; details: KMS-28-BM multiple myeloma cells, 7-day co-treatment with Cpd. No. 15
Protocol: as §3, §4

KMS34 = test: as above; type: cell-based; details: KMS34 multiple myeloma cells, 7-day co-treatment with Cpd. No. 15
Protocol: as §3, §4

L363 = test: as above; type: cell-based; details: L363 multiple myeloma cells, 7-day co-treatment with Cpd. No. 15
Protocol: as §3, §4

JVM2 = test: as above; type: cell-based; details: JVM2 mantle cell lymphoma cells, 7-day co-treatment with Cpd. No. 15
Protocol: as §3, §4

MM1.S = test: as above; type: cell-based; details: MM1.S multiple myeloma cells, 7-day co-treatment with Cpd. No. 15
Protocol: as §3, §4

REC1 = test: as above; type: cell-based; details: REC1 mantle cell lymphoma cells, 7-day co-treatment with Cpd. No. 15
Protocol: as §3, §4

MINO = test: as above; type: cell-based; details: MINO mantle cell lymphoma cells, 7-day co-treatment with Cpd. No. 15
Protocol: as §3, §4

JEKO1 = test: as above; type: cell-based; details: JEKO1 mantle cell lymphoma cells, 7-day co-treatment with Cpd. No. 15
Protocol: as §3, §4

MAVER1 = test: as above; type: cell-based; details: MAVER1 mantle cell lymphoma cells, 7-day co-treatment with Cpd. No. 15
Protocol: as §3, §4

NCI-H929 = test: as above; type: cell-based; details: NCI-H929 multiple myeloma cells, 7-day co-treatment with Cpd. No. 15
Protocol: as §3, §4

SMILES | Combination effect (Loewe Volume class) of Cpd. No. 15 with combination partner (KARPAS422) | Combination effect (Loewe Volume class) of Cpd. No. 15 with combination partner (SUDHL-6) | Combination effect (Loewe Volume class) of Cpd. No. 15 with combination partner (SUDHL-2) | Combination effect (Loewe Volume class) of Cpd. No. 15 with combination partner (WSUDLCL2) | Combination effect (Loewe Volume class) of Cpd. No. 15 with combination partner (KMS-11) | Combination effect (Loewe Volume class) of Cpd. No. 15 with combination partner (Z138) | Combination effect (Loewe Volume class) of Cpd. No. 15 with combination partner (GRANTA519) | Combination effect (Loewe Volume class) of Cpd. No. 15 with combination partner (RPMI-8226) | Combination effect (Loewe Volume class) of Cpd. No. 15 with combination partner (KMS-28-BM) | Combination effect (Loewe Volume class) of Cpd. No. 15 with combination partner (KMS34) | Combination effect (Loewe Volume class) of Cpd. No. 15 with combination partner (L363) | Combination effect (Loewe Volume class) of Cpd. No. 15 with combination partner (JVM2) | Combination effect (Loewe Volume class) of Cpd. No. 15 with combination partner (MM1.S) | Combination effect (Loewe Volume class) of Cpd. No. 15 with combination partner (REC1) | Combination effect (Loewe Volume class) of Cpd. No. 15 with combination partner (MINO) | Combination effect (Loewe Volume class) of Cpd. No. 15 with combination partner (JEKO1) | Combination effect (Loewe Volume class) of Cpd. No. 15 with combination partner (MAVER1) | Combination effect (Loewe Volume class) of Cpd. No. 15 with combination partner (NCI-H929)
Nc1cccc2c1CN(C1CCC(=O)NC1=O)C2=O (centres unmarked) [Lenalidomide, lenalidomide] | No effect | No effect | Additivity (between 1 and −1: additivity) | Additivity (between 1 and −1: additivity) | Synergy (VLoewe>1: synergy) | Synergy (VLoewe>1: synergy) | Additivity (between 1 and −1: additivity) | Synergy (VLoewe>1: synergy) | No Effect | Synergy (VLoewe>1: synergy) | Additivity (between 1 and −1: additivity) | Additivity (between 1 and −1: additivity) | Additivity (between 1 and −1: additivity) | Additivity (between 1 and −1: additivity) | Additivity (between 1 and −1: additivity) | Synergy (VLoewe>1: synergy) | Synergy (VLoewe>1: synergy) | 
CCN(c1cc(-c2ccc(CN3CCOCC3)cc2)cc(C(=O)NCc2c(C)cc(C)[nH]c2=O)c1C)C1CCOCC1 [Tazemetostat, tazemetostat] | No effect | No effect | Additivity (between 1 and −1: additivity) | Additivity (between 1 and −1: additivity) |  | No Effect | No Effect | Additivity (between 1 and −1: additivity) |  | Synergy (VLoewe>1: synergy) | Synergy (VLoewe>1: synergy) | Additivity (between 1 and −1: additivity) | Synergy (VLoewe>1: synergy) | Additivity (between 1 and −1: additivity) | No Effect | No Effect | Additivity (between 1 and −1: additivity) | 
CC1(C)CCC(CN2CCN(c3ccc(C(=O)NS(=O)(=O)c4ccc(NCC5CCOCC5)c([N+](=O)[O-])c4)c(Oc4cnc5[nH]ccc5c4)c3)CC2)=C(c2ccc(Cl)cc2)C1 [Venetoclax, venetoclax] | No effect | Synergy (VLoewe>1: synergy) | Synergy (VLoewe>1: synergy) | Synergy (VLoewe>1: synergy) | Synergy (VLoewe>1: synergy) | Synergy (VLoewe>1: synergy) | Synergy (VLoewe>1: synergy) | Additivity (between 1 and −1: additivity) | Additivity (between 1 and −1: additivity) | Additivity (between 1 and −1: additivity) | Additivity (between 1 and −1: additivity) | Synergy (VLoewe>1: synergy) | Additivity (between 1 and −1: additivity) | Additivity (between 1 and −1: additivity) | Additivity (between 1 and −1: additivity) | Additivity (between 1 and −1: additivity) | Synergy (VLoewe>1: synergy) | Synergy (VLoewe>1: synergy)
